Laboratory results as given in patent US6673827B1, “Methods of treating fungal infections with inhibitors of NAD synthetase enzyme” (priority 1999, dated 2004).
Read-outs that look alike come from different tables or passages of the source.

Columns and labels:
[1] = target: T1, NAD synthetase (recombinant protein from B. subtilis; purified) (Bacillus subtilis, UniProt P08164); experiment: NAD synthetase enzyme inhibition assay (coupled enzymatic assay, HTS); type: biochemical
T1 construct: made in house
T1 sequence (P08164 whole entry): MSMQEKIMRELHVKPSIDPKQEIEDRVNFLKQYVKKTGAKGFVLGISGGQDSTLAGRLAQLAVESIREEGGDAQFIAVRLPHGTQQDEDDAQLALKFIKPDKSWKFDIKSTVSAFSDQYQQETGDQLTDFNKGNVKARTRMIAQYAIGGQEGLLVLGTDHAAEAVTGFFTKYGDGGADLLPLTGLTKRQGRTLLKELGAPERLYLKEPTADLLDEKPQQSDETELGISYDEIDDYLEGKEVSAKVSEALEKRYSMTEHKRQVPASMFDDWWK

[2] = tested on: Candida albicans (ATCC 10231); experiment: Minimum Inhibitory Concentration (MIC) against yeast, broth dilution; type: cell-based; details: Candida albicans, ATCC10231; 37° C., 20 hours, mean of duplicate; read-out: MIC Candida albicans (ATCC 10231)
[3] = tested on: Candida tropicalis (ATCC 28707-amphotericin B-resistant); experiment: as above; type: cell-based; details: Candida tropicalis, ATCC28707, 37° C., 20 hours, mean of duplicate
[4] = tested on: Candida tropicalis (ATCC 750); experiment: as above; type: cell-based; details: Candida tropicalis, ATCC750; 37° C., 20 hours, mean of duplicate
[5] = In vivo toxicity: intraperitoneal (IP) dosage in mice resulting in 50% lethality (LD50); details: mouse, in vivo; male CD-1 mice, single IP dose, observed 14 days
[6] = tested on: Candida tropicalis ATCC 750; experiment: In vitro study of inhibition of growth and lethality against yeast (MIC/MLC susceptibility test), isolate A; type: cell-based; details: Candida tropicalis, 2nd pair of lines, isolate assigned by line order
[7] = tested on: Candida tropicalis ATCC 28707; experiment: In vitro study of inhibition of growth and lethality against yeast (MIC/MLC susceptibility test), isolate B; type: cell-based; details: Candida tropicalis, 1st pair of lines, isolate assigned by line order
[8] = tested on: Candida albicans KJP-000531594; experiment: In vitro study of inhibition of growth and lethality against yeast (MIC/MLC susceptibility test), isolate C; type: cell-based; details: Candida albicans, Candida albicans, 1st pair of lines
[9] = tested on: Candida albicans LH-000664533; experiment: In vitro study of inhibition of growth and lethality against yeast (MIC/MLC susceptibility test), isolate D; type: cell-based; details: Candida albicans, Candida albicans, 2nd pair of lines, isolate assigned by line order
[10] = tested on: Torulopsis glabrata JHC-BC9951635; experiment: In vitro study of inhibition of growth and lethality against yeast (MIC/MLC susceptibility test), isolate E; type: cell-based; details: Torulopsis glabrata, 2nd pair of lines, isolate assigned by line order
[11] = tested on: Torulopsis glabrata ERH-BC9938274; experiment: In vitro study of inhibition of growth and lethality against yeast (MIC/MLC susceptibility test), isolate F; type: cell-based; details: Nakaseomyces glabratus, Torulopsis glabrata, 1st pair of lines, isolate assigned by line order
[12] = tested on: Cryptococcus neoformans DLB-1027594CNC; experiment: In vitro study of inhibition of growth and lethality against yeast (MIC/MLC susceptibility test), isolate G; type: cell-based; details: Cryptococcus neoformans, 1st pair of lines, isolate assigned by line order
[13] = tested on: Cryptococcus neoformans SLP-BC0012854; experiment: In vitro study of inhibition of growth and lethality against yeast (MIC/MLC susceptibility test), isolate H; type: cell-based; details: Cryptococcus neoformans, 2nd pair of lines, isolate assigned by line order

## COC(=O)c1cc2cc(OCc3ccccc3)ccc2n1CCCCCCCOC(=O)Cc1ccc([N+](C)(C)C)cc1.[I-] [Compound 988]
[1]
  IC50: 10 µM
[1]; IC50 (μg/mL) for Inhibit. of NAD Synthetase, table of structures used in the yeast assay (Example 4)
  IC50: 14.3 µM
[2]
  MIC: 0.1 µg/mL
[3]
  MIC: 0.15 µg/mL
[4]
  MIC: 0.024 µg/mL
[5]
  LD50 at 14 days: 135 mg/kg
[6]; ATCC750, read-out: Minimum Lethal Conc. (MLC)
  MFC: 1 µg/mL
[6]; ATCC750, 24 h, read at 24 hr, read-out: Minimum Inhibitory Conc. (MIC), 24 hr.
  MIC: 1 µg/mL
[6]; ATCC750, 48 h, read at 48 hr, read-out: Minimum Inhibitory Conc. (MIC), 48 hr.
  MIC: 1 µg/mL
[7]; ATCC28707, read-out: Minimum Lethal Conc. (MLC)
  MFC: 1 µg/mL
[7]; read at 24 hr
  Minimum Inhibitory Conc. (MIC), 24 hr.: 1 µg/mL
[7]; read at 48 hr
  Minimum Inhibitory Conc. (MIC), 48 hr.: 1 µg/mL
[7]; ATCC28707, 24 h, read at 24 hr, read-out: Minimum Inhibitory Conc. (MIC), 24 hr.
  MIC: 0.5 µg/mL
[7]; ATCC28707, 48 h, read at 48 hr, read-out: Minimum Inhibitory Conc. (MIC), 48 hr.
  MIC: 0.5 µg/mL
[8]; KJP000531594, 24 h, read at 24 hr, isolate not given, assigned by line order and MLC of Table 4B, read-out: Minimum Inhibitory Conc. (MIC), 24 hr.
  MIC: 1 µg/mL
[8]; KJP000531594, 48 h, read at 48 hr, isolate assigned by line order, read-out: Minimum Inhibitory Conc. (MIC), 48 hr.
  MIC: 1 µg/mL
[8]; KJP000531594, isolate assigned by line order, read-out: Minimum Lethal Conc. (MLC)
  MFC: 1 µg/mL
[9]; LH000664533, 24 h, read at 24 hr, read-out: Minimum Inhibitory Conc. (MIC), 24 hr.
  MIC: 1 µg/mL
[9]; LH000664533, 48 h, read at 48 hr, read-out: Minimum Inhibitory Conc. (MIC), 48 hr.
  MIC: 2 µg/mL
[9]; LH000664533, read-out: Minimum Lethal Conc. (MLC)
  MFC: 2 µg/mL
[10]; Nakaseomyces glabratus, JHCBC9951635, 24 h, read at 24 hr, read-out: Minimum Inhibitory Conc. (MIC), 24 hr.
  MIC: 1 µg/mL
[10]; Nakaseomyces glabratus, JHCBC9951635, 48 h, read at 48 hr, read-out: Minimum Inhibitory Conc. (MIC), 48 hr.
  MIC: 2 µg/mL
[10]; Nakaseomyces glabratus, JHCBC9951635, read-out: Minimum Lethal Conc. (MLC)
  MFC: 2 µg/mL
[10]; read at 24 hr
  Minimum Inhibitory Conc. (MIC), 24 hr.: 2 µg/mL
[11]; ERHBC9938274, 24 h, read at 24 hr, read-out: Minimum Inhibitory Conc. (MIC), 24 hr.
  MIC: 2 µg/mL
[11]; ERHBC9938274, 48 h, read at 48 hr, read-out: Minimum Inhibitory Conc. (MIC), 48 hr.
  MIC: 2 µg/mL
[11]; ERHBC9938274, read-out: Minimum Lethal Conc. (MLC)
  MFC: 2 µg/mL
[12]; read at 72 hr
  Minimum Inhibitory Conc. (MIC), 72 hr.: 2 µg/mL
[12]; DLB1027594CNC, 48 h, read at 48 hr, read-out: Minimum Inhibitory Conc. (MIC), 48 hr.
  MIC: 1 µg/mL
[12]; DLB1027594CNC, 72 h, read at 72 hr, read-out: Minimum Inhibitory Conc. (MIC), 72 hr.
  MIC: 1 µg/mL
[12]; DLB1027594CNC, read-out: Minimum Lethal Conc. (MLC)
  MFC: 4 µg/mL
[13]; read at 72 hr
  Minimum Inhibitory Conc. (MIC), 72 hr.: 2 µg/mL
[13]; SLPBC0012854, 48 h, read at 48 hr, read-out: Minimum Inhibitory Conc. (MIC), 48 hr.
  MIC: 1 µg/mL
[13]; SLPBC0012854, 72 h, read at 72 hr, read-out: Minimum Inhibitory Conc. (MIC), 72 hr.
  MIC: 1 µg/mL
[13]; SLPBC0012854, read-out: Minimum Lethal Conc. (MLC)
  MFC: 4 µg/mL
